Data reported in patent publication US7723523B2, “Tetrahydropyridothiophenes” (4SC AG, priority 2004, dated 2010).

How the values were obtained:
[1] = tested on: RKO colon adenocarcinoma cells (RKOp27) arrested by expression of ectopic p27Kip1; assay: Alamar Blue cell viability assay on RKOp27 cells arrested by Ponasterone A-induced p27Kip1 (cell cycle specific mode of action); assay type: cell-based; conditions: Homo sapiens, RKOp27, 72 h, cells arrested by p27Kip1 induced with 10 μM Ponasterone A, 72 hours incubation, read-out: IC50 RKO p27 arrested
Method in brief: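 Viability measured by Alamar Blue fluorescence (ex 544, em 590 nm) after 72 h, 37 °C compound exposure in quadruplicate, normalized to untreated cells as 100%. Cells were p27Kip1-arrested RKOp27, induced with 10 μM Ponasterone A at seeding; compound added 24 h later.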

[2] = tested on: RKO (RKOp27) human colon adenocarcinoma cells; assay: Alamar Blue cell viability assay, anti-proliferative/cytotoxic activity on proliferating RKOp27 cells; assay type: cell-based; conditions: absence of Ponasterone A, 72 hours incubation, read-out: IC50 RKO p27 proliferating
Method in brief: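 RKOp27 subclone of RKO cells, 4000/well in DMEM with 10% FCS, was treated 24 h after seeding with semi-log compound dilutions in quadruplicate for 72 h at 37 °C, 5% CO2. Alamar Blue fluorescence (ex 544/em 590 nm) was read as % viability of untreated cells, and IC50 was taken from concentration-effect curves.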

SMILES | IC50 [1] | IC50 [2]
N#Cc1c(NC(=O)/C=C/c2ccccc2)sc2c1CCN(C(=O)Cc1ccccn1)C2 [Example 174, (E)-N-[3-Cyano-6-(2-pyridin-2-yl-ethanoyl)-4,5,6,7-tetrahydro-thieno[2,3-c]pyridin-2-yl]-3-phenyl-acrylamide] | ≥ 100 µM | ≤ 2 µM
COCCC(=O)N1CCc2c(sc(NC(=O)/C=C/c3cccnc3)c2C#N)C1 [Example 195, (E)-N-[3-Cyano-6-(3-methoxy-propanoyl)-4,5,6,7-tetrahydro-thieno[2,3-c]pyridin-2-yl]-3-pyridin-3-yl-acrylamide] | ≥ 100 µM | ≤ 2 µM
COc1ccc(OC(=O)N2CCc3c(sc(NC(=O)/C=C/c4cccnc4)c3C#N)C2)cc1 [Example 143, 3-Cyano-2-((E)-3-pyridin-3-yl-allanoylamino)-4,7-dihydro-5H-thieno[2,3-c]pyridine-6-carboxylic acid 4-methoxy-phenyl ester] | ≥ 100 µM | ≤ 2 µM
N#Cc1c(NC(=O)/C=C/c2cccnc2)sc2c1CCN(C(=O)OCCc1ccccn1)C2 [Example 158, 3-Cyano-2-((E)-3-pyridin-3-yl-allanoylamino)-4,7-dihydro-5H-thieno[2,3-c]pyridine-6-carboxylic acid 2-pyridin-2-ylethyl ester] | ≥ 100 µM | ≤ 2 µM
COC(=O)CCOC(=O)N1CCc2c(sc(NC(=O)/C=C/c3cccnc3)c2C#N)C1 [Example 162, 3-Cyano-2-((E)-3-pyridin-3-yl-allanoylamino)-4,7-dihydro-5H-thieno[2,3-c]pyridine-6-carboxylic acid 2-methoxycarbonyl-ethyl ester] | ≥ 100 µM | ≤ 2 µM
N#Cc1c(NC(=O)/C=C/c2ccccc2)sc2c1CCN(C(=O)OCCCc1ccncc1)C2 [Example 117, 3-Cyano-2-((E)-3-phenyl-allanoylamino)-4,7-dihydro-5H-thieno[2,3-c]pyridine-6-carboxylic acid 3-pyridin-4-yl-propyl ester] | ≥ 100 µM | ≤ 2 µM
COCCC(=O)N1CCc2c(sc(NC(=O)/C=C/c3ccccc3)c2C#N)C1 [Example 177, (E)-N-[3-Cyano-6-(3-methoxy-propanoyl)-4,5,6,7-tetrahydro-thieno[2,3-c]pyridin-2-yl]-3-phenyl-acrylamide] | ≥ 100 µM | ≤ 2 µM
N#Cc1c(NC(=O)/C=C/c2ccccc2)sc2c1CCN(C(=O)CCc1cccnc1)C2 [Example 185, (E)-N-[3-Cyano-6-(3-pyridin-3-yl-propanoyl)-4,5,6,7-tetrahydro-thieno[2,3-c]pyridin-2-yl]-3-phenyl-acrylamide] | ≥ 100 µM | ≤ 2 µM
N#Cc1c(NC(=O)/C=C/c2ccccc2)sc2c1CCN(C(=O)CCc1c[nH]c3ccccc13)C2 [Example 171, (E)-N-[3-Cyano-6-(3-1H-indol-3-yl-propanoyl)-4,5,6,7-tetrahydro-thieno[2,3-c]pyridin-2-yl]-3-phenyl-acrylamide] | ≥ 100 µM | ≤ 2 µM
CCOc1ccccc1/C=C/C(=O)Nc1sc2c(c1C#N)CCN(C(=O)CCc1ccccn1)C2 [Example 222, (E)-N-[3-Cyano-6-(3-pyridin-2-yl-propanoyl)-4,5,6,7-tetrahydro-thieno[2,3-c]pyridin-2-yl]-3-(2-ethoxy-phenyl)-acrylamide] | ≥ 50 µM | ≤ 0.5 µM
CCOC(=O)COC(=O)N1CCc2c(sc(NC(=O)/C=C/c3cccnc3)c2C#N)C1 [Example 161, 3-Cyano-2-((E)-3-pyridin-3-yl-allanoylamino)-4,7-dihydro-5H-thieno[2,3-c]pyridine-6-carboxylic acid ethoxycarbonylmethyl ester] | ≥ 100 µM | ≤ 2 µM
CCOc1ccccc1/C=C/C(=O)Nc1sc2c(c1C#N)CCN(C(=O)OCCc1ccccn1)C2 [Example 239, 3-Cyano-2-[(E)-3-(2-ethoxy-phenyl)-allanoylamino]-4,7-dihydro-5H-thieno[2,3-c]pyridine-6-carboxylic acid 2-pyridin-2-yl-ethyl ester] | ≥ 100 µM | ≤ 2 µM
N#Cc1c(NC(=O)/C=C/c2cccnc2)sc2c1CCN(C(=O)CCc1cccnc1)C2 [Example 193, (E)-N-[3-Cyano-6-(3-pyridin-3-yl-propanoyl)-4,5,6,7-tetrahydro-thieno[2,3-c]pyridin-2-yl]-3-pyridin-3-yl-acrylamide] | ≥ 100 µM | ≤ 2 µM
N#Cc1c(NC(=O)/C=C/c2cccnc2)sc2c1CCN(C(=O)OCCCc1ccccc1)C2 [Example 148, 3-Cyano-2-((E)-3-pyridin-3-yl-allanoylamino)-4,7-dihydro-5H-thieno[2,3-c]pyridine-6-carboxylic acid 3-phenyl-propyl ester] | ≥ 100 µM | ≤ 2 µM
CCOC(=O)N1CCc2c(sc(NC(=O)/C=C/c3ccccc3OC(C)=O)c2C#N)C1 [Example 69, 2-[(E)-3-(2-Acetoxy-phenyl)-allanoylamino]-3-cyano-4,7-dihydro-5H-thieno[2,3-c]pyridine-6-carboxylic acid ethyl ester] | ≥ 50 µM | ≤ 0.5 µM

Continued, in another order:

IC50 [1] | SMILES | IC50 [2]
≥ 100 µM | CCOC(=O)N1CCc2c(sc(NC(=O)/C=C/c3c(F)cccc3Cl)c2C#N)C1 [Example 67, 2-[(E)-3-(2-Chloro-6-fluoro-phenyl)-allanoylamino]-cyano-4,7-dihydro-5H-thieno[2,3-c]pyridine-6-carboxylic acid ethyl ester] | ≤ 2 µM
≥ 100 µM | CCOC(=O)N1CCc2c(sc(NC(=O)/C=C/c3ccccc3OCC)c2C#N)C1 [Example 62, 3-Cyano-2-[(E)-3-(2-ethoxy-phenyl)-allanoylamino]-4,7-dihydro-5H-thieno[2,3-c]pyridine-6-carboxylic acid ethyl ester] | ≤ 2 µM
≥ 100 µM | COc1ccccc1/C=C/C(=O)Nc1sc2c(c1C#N)CCN(C(=O)OCc1cccnc1)C2 [Example 140, 3-Cyano-2-[(E)-3-(2-methoxy-phenyl)-allanoylamino]-4,7-dihydro-5H-thieno[2,3-c]pyridine-6-carboxylic acid pyridin-3-ylmethyl ester] | ≤ 2 µM
≥ 100 µM | CCOC(=O)N1CCc2c(sc(NC(=O)/C=C/c3ccccc3Br)c2C#N)C1 [Example 66, 2-[(E)-3-(2-Bromo-phenyl)-allanoylamino]-3-cyano-4,7-dihydro-5H-thieno[2,3-c]pyridine-6-carboxylic acid ethyl ester] | ≤ 2 µM
≥ 100 µM | CCOC(=O)N1CCc2c(sc(NC(=O)/C=C/c3ccc(Cl)o3)c2C#N)C1 [Example 78, 2-[(E)-3-(5-Chloro-furan-2-yl)-allanoylamino]-3-cyano-4,7-dihydro-5H-thieno[2,3-c]pyridine-6-carboxylic acid ethyl ester] | ≤ 2 µM
> 100 µM | CCOC(=O)N1CCc2c(sc(NC(=O)/C=C/c3cccs3)c2C#N)C1 [Example 8, 3-Cyano-2-((E)-3-thiophen-2-yl-allanoylamino)-4,7-dihydro-5H-thieno[2,3-c]pyridine-6-carboxylic acid ethyl ester] | ≤ 2 µM
≥ 100 µM | CCOc1ccccc1/C=C/C(=O)Nc1sc2c(c1C#N)CCN(C(=O)OCc1ccncc1)C2 [Example 238, 3-Cyano-2-[(E)-3-(2-ethoxy-phenyl)-allanoylamino]-4,7-dihydro-5H-thieno[2,3-c]pyridine-6-carboxylic acid pyridin-4-ylmethyl ester] | ≤ 2 µM
≥ 100 µM | CCOC(=O)N1CCc2c(sc(NC(=O)/C=C/c3c(F)ccc(F)c3Cl)c2C#N)C1 [Example 57, 2-[(E)-3-(2-Chloro-3,6-difluoro-phenyl)-allanoylamino]-3-cyano-4,7-dihydro-5H-thieno[2,3-c]pyridine-6-carboxylic acid ethyl ester] | ≤ 2 µM
≥ 100 µM | CC(=O)NCCOC(=O)N1CCc2c(sc(NC(=O)/C=C/c3ccccc3)c2C#N)C1 [Example 134, 3-Cyano-2-((E)-3-phenyl-allanoylamino)-4,7-dihydro-5H-thieno[2,3-c]pyridine-6-carboxylic acid 2-acetylamino-ethyl ester] | ≤ 2 µM
> 100 µM | CCOC(=O)N1CCc2c(sc(NC(=O)/C=C/c3ccc(N(C)C)cc3)c2C#N)C1 [Example 26, 3-Cyano-2-[(E)-3-(4-dimethylamino-phenyl)-allanoylamino]-4,7-dihydro-5H-thieno[2,3-c]pyridine-6-carboxylic acid ethyl ester] | ≤ 2 µM
≥ 100 µM | CCOC(=O)N1CCc2c(sc(NC(=O)/C=C/c3cccc4c3OCO4)c2C#N)C1 [Example 111, 2-((E)-3-Benzo[1,3]dioxol-4-yl-allanoylamino)-3-cyano-4,7-dihydro-5H-thieno[2,3-c]pyridine-6-carboxylic acid ethyl ester] | ≤ 2 µM
≥ 100 µM | CCOC(=O)N1CCc2c(sc(NC(=O)/C=C/c3cccc(F)c3C)c2C#N)C1 [Example 80, 3-Cyano-2-[(E)-3-(3-fluoro-2-methyl-phenyl)-allanoylamino]-4,7-dihydro-5H-thieno[2,3-c]pyridine-6-carboxylic acid ethyl ester] | ≤ 2 µM
≥ 100 µM | COCC(=O)N1CCc2c(sc(NC(=O)/C=C/c3ccccc3)c2C#N)C1 [Example 181, (E)-N-[3-Cyano-6-(2-methoxy-ethanoyl)-4,5,6,7-tetrahydro-thieno[2,3-c]pyridin-2-yl]-3-phenyl-acrylamide] | ≤ 2 µM
